We go through four compounds from ChEMBL document CHEMBL3879884, “Compounds and therapeutical use thereof” (2005).

Test [1] has as its target T1, DNA topoisomerase II (Homo sapiens) (UniProt P11388+Q02880). Nature of the test: Binding affinity to p170 form of human DNA topoisomerase-2 at 50 nM in presence of UV irradiation after 60 mins by agarose gel electrophoresis. The following applies: tested as the 3H-labelled form. Format: protein assay.
In test [2] the target is T1, DNA topoisomerase II (Homo sapiens). In words: Inhibition of DNA topoisomerase-2 (unknown origin) assessed as decrease in relaxation of supercoiled pRYG DNA at 12.5 to 100 uM after 50 mins by ethidium bromide staining-based agarose gel electrophoresis. Format: protein assay.
A short description of test [3]: Cytotoxicity against human DLD cells assessed as inhibition of cell proliferation after 48 hrs by CellTiter-Glo assay. Format: functional.
Another test has as its system Escherichia coli. Nature of the test: Binding affinity to Escherichia coli supercoiled pRYG DNA assessed as reduction of DNA topoisomerase-1-mediated relaxation of supercoiled DNA at 1 to 10 uM by agarose gel electrophoresis.
Test [4] deals with T1, DNA topoisomerase II (Homo sapiens). In words: Inhibition of DNA topoisomerase-2 (unknown origin) assessed as decrease in relaxation of supercoiled pRYG DNA at 1 to 10 uM after 50 mins by agarose gel electrophoresis. Format: protein assay.

The source made the active and inactive calls. The rule behind the calls is not given here.

`Cc1nc(N(C)c2ccc(N=[N+]=[N-])cc2)c2ccccc2n1`: the result in test [1] was Active.

`COc1ccc(N(C)c2nc(Cl)nc3ccccc23)cc1`: the inhibition result in test [2] is “Active”. Turning to `COc1ccc(Nc2nc(Cl)nc3ccccc23)cc1`, the GI50 in test [3] was above 10 µM. Consider `CC[n+]1c(-c2ccccc2)c2cc(N)ccc2c2ccc(N)cc21`, for which, in the test with Escherichia coli, the result was Active. For the same compound, the inhibition entry in test [4] was “Active”.

As a reminder, the GI50 is the concentration at which growth is held to half of that of the control.
